Like-named read-outs stand apart in the source and are kept apart here.
Columns and labels:
[1] = target: T1, STS (Homo sapiens, UniProt P08842); test: Plate assay, % inhibition
T1 sequence (P08842 22-583): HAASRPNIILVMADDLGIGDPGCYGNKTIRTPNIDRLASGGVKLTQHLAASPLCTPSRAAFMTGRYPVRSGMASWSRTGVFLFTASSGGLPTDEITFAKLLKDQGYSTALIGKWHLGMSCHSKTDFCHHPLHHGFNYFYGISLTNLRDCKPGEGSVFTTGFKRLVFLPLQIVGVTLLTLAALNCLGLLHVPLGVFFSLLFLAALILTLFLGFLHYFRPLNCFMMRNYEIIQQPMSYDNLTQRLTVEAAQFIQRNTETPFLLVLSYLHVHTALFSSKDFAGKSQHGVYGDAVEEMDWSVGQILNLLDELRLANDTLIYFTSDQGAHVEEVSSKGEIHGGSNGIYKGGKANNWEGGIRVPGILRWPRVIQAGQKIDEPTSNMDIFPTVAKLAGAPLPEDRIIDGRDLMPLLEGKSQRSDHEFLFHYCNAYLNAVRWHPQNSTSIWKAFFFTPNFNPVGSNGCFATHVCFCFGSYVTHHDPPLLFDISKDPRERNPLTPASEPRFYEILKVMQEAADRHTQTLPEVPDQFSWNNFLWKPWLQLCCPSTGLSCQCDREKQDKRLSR
Protocol: The STS inhibition provided by the compounds was determined in accordance with a plate assay and the Protocols set out herein.

[2] = target: T2, steroid sulphatase (Homo sapiens, UniProt P08842); test: Inhibition of steroid sulphatase activity in placental microsomes (Protocol 2); assay type: biochemical
T2 construct: Sulphatase-positive human placenta from normal term pregnancies are thoroughly minced with scissors; from tissue; host or cells: human term placenta (2000 g supernatant / microsomes)
Protocol: Inhibition of Steroid Sulphatase Activity in Placental Microsomes
Sulphatase-positive human placenta from normal term pregnancies are thoroughly minced with scissors and washed once with cold phosphate buffer (pH 7.4, 50 mM) then re-suspended in cold phosphate buffer (5 ml/g tissue). Homogenisation is accomplished with an Ultra-Turrax homogeniser, using three 10 second bursts separated by 2 minute cooling periods in ice. Nuclei and cell debris are removed by centrifuging (4° C.) at 2000 g for 30 minutes and portions (2 ml) of the supernatant are stored at 20° C.
Incubations (1 ml) are carried out using a protein concentration of 100 mg/ml, substrate concentration of 20 mM [6,7–3H]oestrone-3-sulphate (specific activity 60 Ci/mmol from New England Nuclear, Boston, Mass., U.S.A.) and an incubation time of 20 minutes at 37° C. If necessary eight concentrations of compounds are employed: 0 (i.e. control); 0.05 mM; 0.1 mM; 0.2 mM; 0.4 mM; 0.6 mM; 0.8 mM; 1.0 mM. After incubation each sample is cooled and the medium (1 ml) was pipetted into separate tubes containing [14C]oestrone (7×10^3 dpm) (specific activity 97 Ci/mmol from Amersham International Radiochemical Centre, Amersham, U.K.). The mixture is shaken thoroughly for 30 seconds with toluene (5 ml). […] A portion (2 ml) of the organic phase was removed, evaporated and the 3H and 14C content of the residue determined by scintillation spectrometry. The mass of oestrone-3-sulphate hydrolysed is calculated from the 3H counts obtained (corrected for the volumes of the medium and organic phase used, and for recovery of [14C]oestrone added) and the specific activity of the substrate.

[3] = target: T3, E1-STS enzyme (Homo sapiens, UniProt P08842); conditions: cited from earlier work
T3 sequence (P08842 22-583): T1 sequence (P08842 22-583)

[4] = tested on: Meth A sarcoma, B16 melanoma or MDA-MB-435 estrogen receptor negative (ER−) breast cancer cells; conditions: subcutaneous injection of tumour cells; cited from earlier work
[5] = tested on: tubulin; conditions: at high concentrations; cited from earlier work
[6] = 0.1 μM, -ve % means stimulation
[7] = read-out: Plate assay % inhibition
[8] = 10 nM, superscript 1 or 2 = run with the reference values of that footnote, -ve % means stimulation
[9] = 1 μM, superscript 1 or 2 = run with the reference values of that footnote, -ve % means stimulation

COc1cc2c(cc1O)CCC1C2CC[C@@]2(C)C1CC[C@@]2(O)Cc1cccc(Br)c1 (stereo partly drawn)
melting point: 173 to 177 °C

C[C@]12CCC3c4ccc(O)cc4CCC3C1CC[C@@]2(O)Cc1ccccn1 (stereo partly drawn)
melting point: 250 to 255 °C

C[C@]12CC[C@@H]3c4ccc(OS(N)(=O)=O)cc4CC[C@H]3[C@@H]1CC[C@@H]2O [BLE00084]
Plate assay % inhibition [1, 6]: 4%
Plate assay % inhibition ([1]; 10 μM, -ve % means stimulation): 23%

COc1cc2c(cc1O)CCC1C2CC[C@@]2(C)C1CC[C@@]2(O)Cc1ccc(C(C)(C)C)cc1 (stereo partly drawn) [BLE01008, 3,17β-Dihydroxy-17α-(4-tert-butylbenzyl)-2-methoxyestra-1,3,5(10)-triene]
inhibition at 0.1 µM [1, 7]: -12%
inhibition at 1 µM [1, 7]: -15%
melting point: 223 to 225 °C

COc1cc2c(cc1O)CCC1C2CC[C@@]2(C)C1CC[C@@]2(O)Cc1ccccc1 (stereo partly drawn) [BLE01014, 3,17β-Dihydroxy-17α-benzyl-2-methoxyestra-1,3,5(10)-triene]
inhibition at 0.1 µM [1, 7]: -14%
inhibition at 1 µM [1, 7]: -14%
melting point: 209 to 213 °C

COc1cc2c(cc1OS(N)(=O)=O)CC[C@@H]1[C@@H]2CC[C@@]2(C)[C@H]1CC[C@@]2(O)Cc1ccc(C(C)(C)C)cc1 [BLE01016, 3-O-Sulfamate 17β-hydroxy-17α-(4-tert-butylbenzyl)-2-methoxyestra-1,3,5(10) -triene]
inhibition at 0.1 µM [1, 7]: -14%
inhibition at 1 µM [1, 7]: -10%
inhibition at 10 µM [1, 7]: -3%
IC50 [2]: 4300 nM

COc1cc2c(cc1OS(N)(=O)=O)CC[C@@H]1[C@@H]2CC[C@@]2(C)[C@H]1CC[C@@]2(O)Cc1ccccc1 [BLE01018, 3-O-Sulfamate 17β-hydroxy-17α-benzyl-2-methoxyestra-1,3,5(10)-triene]
inhibition at 0.1 µM [1, 7]: -19%
inhibition at 1 µM [1, 7]: -12%
IC50 [2]: 430 nM

CC12CCC3c4ccc(OS(N)(=O)=O)cc4CCC3C1CCC2OS(N)(=O)=O (stereo not drawn) [BLE99031B]
inhibition at 0.1 µM [1, 7]: 7%
inhibition at 1 µM [1, 7]: 12%
inhibition at 10 µM [1, 7]: 32%
IC50 [2]: 20 nM

CC(=O)NS(=O)(=O)O[C@H]1CCC2C3CCc4cc(O)ccc4C3CC[C@@]21C (stereo partly drawn) [BLE99058]
Plate assay % inhibition [1, 6]: 4%
Plate assay % inhibition ([1]; 1 μM, -ve % means stimulation): 1%
Placental Microsomes % inhibition [2, 8]: 0.9^1%
Placental Microsomes % inhibition [2, 9]: 7.8^1%

C[C@]12CCC3c4ccc(O)cc4CCC3C1CC[C@@H]2OS(=O)(=O)N(Cc1ccccc1)Cc1ccccc1 (stereo partly drawn) [BLE99060]
Placental Microsomes % inhibition [2, 8]: −3.2^2%
Placental Microsomes % inhibition [2, 9]: 1.36^2%

C[C@]12CCC3c4ccc(OS(N)(=O)=O)cc4CCC3C1CC[C@@H]2OS(=O)(=O)N(Cc1ccccc1)Cc1ccccc1 (stereo partly drawn) [BLE99063]
Plate assay % inhibition [1, 6]: 0%
Plate assay % inhibition ([1]; 1 μM, -ve % means stimulation): 15%
Placental Microsomes % inhibition [2, 8]: −1.9^1%
Placental Microsomes % inhibition [2, 9]: 38.2^1%

CC(=O)NS(=O)(=O)O[C@H]1CCC2C3CCc4cc(OS(N)(=O)=O)ccc4C3CC[C@@]21C (stereo partly drawn) [BLE99065]
Plate assay % inhibition [1, 6]: 7%
Plate assay % inhibition ([1]; 1 μM, -ve % means stimulation): 5%
Plate assay % inhibition ([1]; 10 μM, -ve % means stimulation): 23%
Placental Microsomes % inhibition [2, 8]: 9.8^1%
Placental Microsomes % inhibition [2, 9]: 91.0^1%

C[C@]12CCC3c4ccc(O)cc4CCC3C1CC[C@H]2OS(=O)(=O)N(Cc1ccccc1)Cc1ccccc1 (stereo partly drawn) [BLE99066]
Plate assay % inhibition [1, 6]: 11%
Plate assay % inhibition ([1]; 1 μM, -ve % means stimulation): 5%
Plate assay % inhibition ([1]; 10 μM, -ve % means stimulation): 27%
Placental Microsomes % inhibition [2, 8]: 1.4^1%
Placental Microsomes % inhibition [2, 9]: 4.5^1%

CN(C)S(=O)(=O)O[C@H]1CCC2C3CCc4cc(O)ccc4C3CC[C@@]21C (stereo partly drawn) [BLE99067]
Plate assay % inhibition [1, 6]: −5%
Plate assay % inhibition ([1]; 1 μM, -ve % means stimulation): −1%
Plate assay % inhibition ([1]; 10 μM, -ve % means stimulation): 50%
Placental Microsomes % inhibition [2, 8]: −0.1^1%
Placental Microsomes % inhibition [2, 9]: 8.7^1%

C[C@]12CCC3c4ccc(OS(N)(=O)=O)cc4CCC3C1CC[C@H]2OS(=O)(=O)N(Cc1ccccc1)Cc1ccccc1 (stereo partly drawn) [BLE99068]
Plate assay % inhibition [1, 6]: −18%
Plate assay % inhibition ([1]; 1 μM, -ve % means stimulation): −1%
Plate assay % inhibition ([1]; 10 μM, -ve % means stimulation): 19%
Placental Microsomes % inhibition [2, 8]: 4.9^1%
Placental Microsomes % inhibition [2, 9]: 58.2^1%

CN(C)S(=O)(=O)OC1CCC2C3CCc4cc(OS(N)(=O)=O)ccc4C3CCC12C (stereo not drawn) [BLE99069]
Plate assay % inhibition [1, 6]: 3%
Plate assay % inhibition ([1]; 1 μM, -ve % means stimulation): 10%
Placental Microsomes % inhibition [2, 8]: 30.3^1%
Placental Microsomes % inhibition [2, 9]: 96.3^1%

CCCCCN(CCCCC)S(=O)(=O)O[C@H]1CCC2C3CCc4cc(O)ccc4C3CC[C@@]21C (stereo partly drawn) [BLE99073]
Placental Microsomes % inhibition [2, 8]: 1.2^2%
Placental Microsomes % inhibition [2, 9]: −11.8^2%

CCCCCN(CCCCC)S(=O)(=O)O[C@H]1CCC2C3CCc4cc(OS(N)(=O)=O)ccc4C3CC[C@@]21C (stereo partly drawn) [BLE99074]
Placental Microsomes % inhibition [2, 9]: 23.7^2%

COc1cc2c(cc1OS(N)(=O)=O)CC[C@@H]1[C@@H]2CC[C@]2(C)C(=O)CC[C@@H]12 [Compound 2-MOEMATE, 2-methoxyoestrone-3-O-sulphamate, reference compound]
Plate assay % inhibition [1, 6]: 15%
Plate assay % inhibition ([1]; 1 μM, -ve % means stimulation): 42%
Plate assay % inhibition ([1]; 10 μM, -ve % means stimulation): 88%
potency as a steroid sulphatase inhibitor relative to EMATE [3]: equipotent with EMATE

COc1cc2c(cc1O)CC[C@@H]1[C@@H]2CC[C@]2(C)[C@@H](O)CC[C@@H]12 [Compound 2-MeOE2, 2-methoxyoestradiol]
growth of tumours in vivo [4]: inhibits the growth of tumours
inhibition of colchicine binding to tubulin [5]: weak inhibitor of colchicine binding to tubulin

CSc1cc2c(cc1OS(N)(=O)=O)CCC1C2CCC2(C)C1CCC2(O)Cc1ccc(C(C)(C)C)cc1 (stereo not drawn) [Compound 3]
inhibition at 0.1 µM ([1]; 0.1 μM, read-out: Plate Assay, % inhibition): < 1%
inhibition at 1 µM ([1]; 1 μM, read-out: Plate Assay, % inhibition): < 1%
inhibition at 10 µM ([1]; 10 μM, read-out: Plate Assay, % inhibition): 48%
inhibition at 0.01 µM ([2]; 10 nM, read-out: Placental Microsomes, % inhibition): 17.6%
inhibition at 0.1 µM ([2]; 100 nM, read-out: Placental Microsomes, % inhibition): 56%
inhibition at 10 µM ([2]; 10 μM, read-out: Placental Microsomes, % inhibition): 86.4%
IC50 ([2]; read-out: Placental Microsomes, IC50): 80 nM

NS(=O)(=O)Oc1ccc(C(=O)c2ccccc2)cc1 [Compound 6]
Plate assay % inhibition ([1]; 0.1 μM): <1%
Plate assay % inhibition ([1]; 1 μM): 1%
Plate assay % inhibition ([1]; 10 μM): 11%

NS(=O)(=O)Oc1ccc(C(=O)C=Cc2ccccc2)cc1 [Compound 8]
Plate assay % inhibition ([1]; 0.1 μM): <1%
Plate assay % inhibition ([1]; 1 μM): <4%
Plate assay % inhibition ([1]; 10 μM): 14%

NS(=O)(=O)Oc1ccc2oc3ccccc3c2c1 [Compound 9]
Plate assay % inhibition ([1]; 0.1 μM): <1%
Plate assay % inhibition ([1]; 1 μM): 1%
Plate assay % inhibition ([1]; 10 μM): 16%
Placental Microsomes % inhibition ([2]; 10 nM): <5%
Placental Microsomes % inhibition ([2]; column head printed "μM"): 66.0%

COc1cc2c(cc1OS(N)(=O)=O)CCC1C2CCC2(C)C(OS(N)(=O)=O)CCC12 (stereo not drawn) [OSO2NH2, OMe, C-β-OSO2NH2, α-H]
inhibition at 0.1 µM [1, 7]: 7%
inhibition at 1 µM [1, 7]: 12%
inhibition at 10 µM [1, 7]: 32%

oestrone-3-N-sulphamate
mode of E1-STS inhibition [3]: weaker non-time-dependent inactivators

oestrone-3-S-sulphamate
mode of E1-STS inhibition [3]: weaker non-time-dependent inactivators

From US7067503B2, “17-aryl linker derivatised estrogen 3-sulphamates as inhibitors of steroid sulphatase” (priority 2000, dated 2006)
